Earlier results in US20060177438A1, “Methods of altering absorption of hydrophobic compounds” (New England Medical Center, priority 2005, published 2006).

Conditions: cited from earlier work

**Q.** Which “dietary cholesterol absorbed by the human intestine” value does the source give for `CC(C)CCC[C@@H](C)[C@H]1CC[C@H]2[C@@H]3CC=C4C[C@@H](O)CC[C@]4(C)[C@H]3CC[C@]12C` [cholesterol] here?
**A.** 34-57%
